Experimental data taken from ChEMBL document CHEMBL3596131, “Discovery of a novel trans-1,4-dioxycyclohexane GPR119 agonist series” (Bioorg Med Chem Lett, 2015).

What was measured:
[1] = biological target: T1, Glucose-dependent insulinotropic receptor (Mus musculus, UniProt Q7TQP3); assay: Agonist activity at mouse GPR119 by HTRF cAMP assay; format: functional
T1 sequence (Q7TQP3 whole entry): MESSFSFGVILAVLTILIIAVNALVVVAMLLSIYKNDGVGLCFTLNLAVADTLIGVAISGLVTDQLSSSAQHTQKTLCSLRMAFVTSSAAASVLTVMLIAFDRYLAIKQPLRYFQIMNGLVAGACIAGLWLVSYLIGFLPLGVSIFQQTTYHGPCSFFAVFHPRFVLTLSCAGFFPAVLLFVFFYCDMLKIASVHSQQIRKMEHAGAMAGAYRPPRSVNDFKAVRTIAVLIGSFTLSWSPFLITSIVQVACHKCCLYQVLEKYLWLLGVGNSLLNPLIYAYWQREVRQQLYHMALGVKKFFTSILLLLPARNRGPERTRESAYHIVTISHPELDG

[2] = biological target: T2, Glucose-dependent insulinotropic receptor (Rattus norvegicus, UniProt Q7TQN8); assay: Agonist activity at rat GPR119 by HTRF cAMP assay; format: functional
T2 sequence (Q7TQN8 whole entry): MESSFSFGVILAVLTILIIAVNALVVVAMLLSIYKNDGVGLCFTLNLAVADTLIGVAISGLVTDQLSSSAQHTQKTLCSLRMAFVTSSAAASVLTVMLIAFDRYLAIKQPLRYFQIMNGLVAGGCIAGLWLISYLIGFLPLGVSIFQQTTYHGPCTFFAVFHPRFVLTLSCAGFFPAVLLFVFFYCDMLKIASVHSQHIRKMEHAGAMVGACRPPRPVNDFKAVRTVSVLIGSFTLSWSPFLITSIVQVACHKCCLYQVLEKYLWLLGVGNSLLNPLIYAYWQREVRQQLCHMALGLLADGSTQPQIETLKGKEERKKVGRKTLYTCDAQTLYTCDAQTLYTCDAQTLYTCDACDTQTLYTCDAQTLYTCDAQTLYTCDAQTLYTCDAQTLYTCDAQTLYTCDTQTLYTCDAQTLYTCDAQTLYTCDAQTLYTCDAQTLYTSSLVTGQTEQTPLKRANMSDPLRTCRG

Cytochrome P450 2D6 = Cytochrome P450 2D6 (Homo sapiens, UniProt P10635); assay: Inhibition of CYP2D6 in human liver microsomes; format: ADME
HepG2 = assay: Cytotoxicity against human HepG2 cells; format: cell-based
[3] = Plasma protein binding in mouse; format: ADME, organism-based; settings: read-out: PPB (converted)
[4] = Plasma protein binding in human; format: ADME, cell-free; settings: read-out: PPB (converted)
Cytochrome P450 3A4 = Cytochrome P450 3A4 (Homo sapiens, UniProt P08684); assay: Inhibition of CYP3A4 in human liver microsomes; format: ADME
Cytochrome P450 3A4, sequence (P08684 whole entry): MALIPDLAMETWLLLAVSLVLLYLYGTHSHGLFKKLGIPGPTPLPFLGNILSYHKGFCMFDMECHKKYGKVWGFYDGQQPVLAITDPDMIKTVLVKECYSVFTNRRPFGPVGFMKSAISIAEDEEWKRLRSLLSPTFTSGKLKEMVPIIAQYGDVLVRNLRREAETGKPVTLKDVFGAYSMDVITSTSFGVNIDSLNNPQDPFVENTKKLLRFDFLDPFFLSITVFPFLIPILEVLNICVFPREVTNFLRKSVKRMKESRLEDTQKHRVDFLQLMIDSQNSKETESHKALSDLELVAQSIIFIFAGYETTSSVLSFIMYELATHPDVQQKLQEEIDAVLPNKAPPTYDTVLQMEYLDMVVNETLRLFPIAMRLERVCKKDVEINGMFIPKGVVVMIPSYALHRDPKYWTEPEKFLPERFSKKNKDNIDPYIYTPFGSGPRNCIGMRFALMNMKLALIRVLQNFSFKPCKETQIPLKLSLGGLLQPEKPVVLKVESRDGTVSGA

Cytochrome P450 2D6, sequence (P10635 whole entry): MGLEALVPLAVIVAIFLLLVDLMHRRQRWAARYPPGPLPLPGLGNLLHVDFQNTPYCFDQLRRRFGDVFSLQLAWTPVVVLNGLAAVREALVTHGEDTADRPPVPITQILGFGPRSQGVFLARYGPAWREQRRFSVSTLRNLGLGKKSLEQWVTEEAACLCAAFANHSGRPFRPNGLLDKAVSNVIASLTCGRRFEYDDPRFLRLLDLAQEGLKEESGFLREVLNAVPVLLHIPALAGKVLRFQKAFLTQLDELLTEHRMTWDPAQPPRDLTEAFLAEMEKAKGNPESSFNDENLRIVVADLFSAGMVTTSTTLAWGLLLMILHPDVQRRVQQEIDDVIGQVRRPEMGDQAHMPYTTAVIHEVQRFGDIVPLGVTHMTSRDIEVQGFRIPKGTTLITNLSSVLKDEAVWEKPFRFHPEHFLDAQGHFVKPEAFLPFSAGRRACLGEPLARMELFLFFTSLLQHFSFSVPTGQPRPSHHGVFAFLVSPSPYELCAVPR

Structure (SMILES): C[C@@H](OC(=O)N1CCC(O[C@H]2CC[C@H](Oc3cnc(S(C)(=O)=O)cn3)CC2)CC1)C(F)(F)F
- EC50 [1]: 20.5 nM
- EC50 [2]: 28.8 nM
- INH (Cytochrome P450 2D6): > 50 µM
- Activity (HepG2): Non-toxic
- fraction unbound [3]: 0.065
- fraction unbound [4]: 0.025
- INH (Cytochrome P450 3A4): > 50 µM
